Literature values as cited in publication PMC6225257 (Molecules : A Journal of Synthetic Chemistry and Natural …, 2018).

Conditions: patients with chronic kidney disease; ref [18]
Source text: Here, we conjugated P88 to a paramagnetic MRI CA comprising a chelator (1,4,7,10-tetraazacyclododecane-1,4,7,10-tetraacetic acid, DOTA) complexed with GdCl3 to solve eventual limitations of the superparamagnetic CAs and pave the way towards future clinical implementation. Gadolinium (Gd)-based CAs (GBCA) are routinely employed in radiology as diagnostic agents.

## Gd-DOTA
  effect on renal function: does not affect renal function
